Experimental data published in US20040181075A1, “Process of making chalcone derivatives” (priority 2002, published 2004).

| Structure (SMILES) | melting point |
| --- | --- |
| COc1cc(OC)c(-c2cc3ccccc3s2)cc1/C=C/C(=O)c1ccc(C(=O)O)cc1 [Example 3, 4-[(2E)-3-(5-benzo[b]thien-2-yl-2,4-dimethoxyphenyl)-1-oxo-2-propenyl]-benzoic acid] | 231 to 232 °C (dec.) |
| COc1cc(OC)c(-c2cc3ccccc3s2)cc1/C=C\C(=O)c1ccc(C(=O)O)cc1 [Example 66, 4-[(2Z)-3-(5-benzo[b]thien-2-yl-2,4-dimethoxyphenyl)-1-oxo-2-propenyl]-benzoic acid] | 176 to 178 °C |
